# Results from the METLIN SMRT retention time set (Domingo-Almenara et al. 2019).
# Assay: gradient 5% acetonitrile 3 min, to 50% in 2 min, to 85% in 15 min, held 3 min, 100 µL/min
# Details: column: Zorbax Extend-C18 2.1 x 50 mm; eluents: water / acetonitrile, 0.1% formic acid
# Procedure, shortened: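 Retention times of pure standards were taken from adduct peaks that were selected by computer and manually inspected. Over 3 months, mixtures of ~100 molecules were run by HPLC–quadrupole time-of-flight mass spectrometry in positive and negative ionization mode. The Zorbax Extend-C18 column (2.1 × 50 mm, 1.8 μm) ran at 100 μL/min in water and acetonitrile, each containing 0.1% formic acid, with 40 μL dead volume and 900 μL dwell volume.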
row,SMILES,RP-LC retention time [s]
1,Cc1cc(C(=O)NC(C)C2CC3CCC2C3)c2c(C)noc2n1 (stereo not given),939
2,Cc1cc(OCC(=O)N2CCC3(O)CCCCC3C2)c2c3c(c(=O)oc2c1)CCC3 (stereo not given),803
3,CC1CCN(S(=O)(=O)c2cc(C(=O)N3CCN(c4cccc(Cl)c4)CC3)n(C)c2)CC1,1120
4,COc1ccccc1C(=O)Nc1ccc2nc(N3CCN(C4CCCCC4)CC3)cc(C(=O)O)c2c1,638
5,COc1cccc(NC(=O)C2CCN(S(=O)(=O)c3ccc4c(c3)sc(=O)n4C(C)C)CC2)c1,960
6,O=C(Nc1ccc(OCc2nnc(-c3ccccc3)o2)cc1)C1COc2ccccc2O1 (stereo not given),984
7,CCc1cccc(NS(=O)(=O)c2cc3n(c2)CCN(CC(C)C)C3=O)c1,852
8,COc1ccc(-c2ccc(C(=O)N3CCCc4ccccc43)o2)c([N+](=O)[O-])c1,976
9,Cc1nn(-c2nc(-c3ccc(F)cc3)cs2)c(C)c1CC(=O)N1CCc2ccccc2C1,1220
10,CC(C)C(=O)NCc1cnn(-c2ccc(C(=O)Nc3ccc4c(c3)OCCO4)cc2)c1,733
11,Cc1oc2ccn(Cc3cccc(F)c3)c(=O)c2c1C(=O)NCC1CCCO1 (stereo not given),891
12,CC(C)CNC(=O)c1c2c(nc3ccccc13)CCCC2,639
13,CCOc1ccccc1CNC(=O)C1CCCN(c2ncnc3c2oc2ccccc23)C1 (stereo not given),813
14,c1ccc(-c2nc3ncc4c(n3n2)CCC4)cc1,756
15,CC(NCC(O)COc1c(F)cc(Br)cc1F)c1ccccc1 (stereo not given),618
16,O=c1n(CCOc2ccccc2)nc2ccc(S(=O)(=O)N3CCOCC3)cn12,792
17,CCN1C=C(C(=O)OCc2ccc(Cl)cc2)C(C)=NS1(=O)=O,1060
18,Cc1noc(C)c1CC(=O)N1CCc2ccccc2[C@H]1C,732
19,Cc1ccc(NC(=O)NCCc2cn(CC(C)C)c3ncccc23)c(Cl)c1,937
20,O=C(NCCc1cccs1)C1CCCN(C(=O)c2cc(-c3ccccn3)n[nH]2)C1 (stereo not given),645
21,CCOC(=O)N1CCN(S(=O)(=O)c2ccc(OCC)cc2OCC)CC1,858
22,CCC(=O)Nc1ccc2nc(N3CCN(CC(=O)Nc4c(C)cccc4C)CC3)cc(C(=O)O)c2c1,594
23,O=c1c2cc(-c3ccc(Br)cc3)nn2cnn1Cc1nc(-c2ccccc2)no1,1190

row,SMILES,RP-LC retention time [s]
1,CCOc1ccccc1NS(=O)(=O)c1ccc2c(c1)CCCC(=O)N2,783
2,O=C(C1CCCN(c2ncnc3c2nc2n3CCCCC2)C1)N1CCN(c2ncccn2)CC1 (stereo not given),690
3,COc1cccc(CNC(=O)N2CCCC(Cn3cnc4cccnc43)C2)c1 (stereo not given),654
4,CCOC(=O)C1=C(C)NC2=C(C(=O)CCC2)C1c1ccc(OC)c(OC)c1OC (stereo not given),727
5,COc1nc2ccccc2nc1N1CCCC(C(=O)NC(C)c2ccccc2)C1 (stereo not given),1050
6,CCOC(=O)C(C)NC(=O)NCC(=O)N1CCc2ccccc21 (stereo not given),696
7,Cn1cnc2cc(CNC(=O)CCc3ccccc3)ccc21,604
8,Cc1nc(-c2noc(-c3cccc(F)c3)n2)cn1CC(=O)Nc1cccc(Cl)c1,957
9,COCCN1C(=O)c2ccccc2C(C(=O)NCCc2ccc(F)cc2)C12CCCC2 (stereo not given),874
10,CCOC(=O)C1=C(CN2CCN(Cc3ccc4c(c3)OCO4)CC2)NC(=O)NC1c1ccc(F)cc1 (stereo not given),675
11,CC(C)c1noc(-c2ccnc(-n3cnc(C(=O)NC4CCCCC4)c3)c2)n1,1020
12,COc1ccc(CNC(=O)C2CCc3nc(N4CCOCC4)ncc3C2)cc1 (stereo not given),777
13,CCn1cc(CN2CCn3c(nnc3[C@@H]3C[C@@H](O)CN3Cc3cccnc3)C2)c(C)n1,513
14,CC(C)CNC(=O)/C=C\C(=O)O,717
15,COc1ccc2c(c1)C1(CCN(S(=O)(=O)c3ccc(F)c(F)c3)C1)C(=O)N2 (stereo not given),837
16,c1csc(CN2CCC(Oc3ccccc3-c3nc(-c4cnccn4)no3)C2)c1 (stereo not given),662
17,O=C(NCc1csc(C2CCN(C(=O)c3ccccc3Cl)CC2)n1)C1CCC1,725
18,O=c1n(Cc2ccccc2)nc2c(S(=O)(=O)N3CCN(c4ccc(F)cc4)CC3)cccn12,973
19,CC1CCN(C(=O)C(=O)NCc2n[nH]c(=O)c3ccccc23)CC1,639
20,c1ccc(Cn2cnnc2C2CCCCN2Cc2ccoc2)cc1 (stereo not given),601
21,CCOc1ccc(N2CC(C#N)=C3c4cc(OC)c(OC)cc4CCN3C2)cc1,848
22,Cc1cc(C)n(Cc2c(C(=O)NCC3Cn4cccc4C(=O)N3C)noc2C)n1 (stereo not given),688
